Experimental data taken from ChEMBL document CHEMBL1201862, “PubChem BioAssay data set” (2004).
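Five compound concentrations were applied to cells in 96-well plates for 48 hours; endpoints were derived by simple linear interpolation of the resulting dose-response curve. GI50: concentration for 50% inhibition of growth.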 The source made the active and inactive calls. Rule as the data show it: active = GI50 up to about 1.1 µM and inactive = higher.

What was measured:
Assay in all cases: NCI-60 cell line screen, 48 h
[1] = test system: HCC 2998
[2] = test system: SNB-19
[3] = test system: HOP-62
[4] = test system: NCI-H460
[5] = test system: SF-539
[6] = test system: OVCAR-8
[7] = test system: DLD-1
[8] = test system: HCT-116
[9] = test system: A498
[10] = test system: HOP-92
[11] = test system: SF-295
[12] = test system: K562
[13] = test system: KM-20L2
[14] = test system: RPMI-8226
[15] = test system: NCI-H23
[16] = test system: SN12C
[17] = test system: XF498
[18] = test system: OVCAR-3
[19] = test system: UACC-257
[20] = test system: COLO 205
[21] = test system: SK-MEL-5
[22] = test system: SNB-78
[23] = test system: NCI/ADR-RES
[24] = test system: KM12
[25] = test system: U-251
[26] = test system: SK-OV-3
[27] = test system: HT-29
[28] = test system: MOLT-4
[29] = test system: SF-268
[30] = test system: IGROV-1
[31] = test system: HOP-18
[32] = test system: RXF 393
[33] = test system: UO-31
[34] = test system: OVCAR-5
[35] = test system: SNB-75
[36] = test system: SW-620
[37] = test system: HL-60
[38] = test system: SK-MEL-28
[39] = test system: HCT-15
[40] = test system: M19-MEL
[41] = test system: DMS-273
[42] = test system: NCI-H522
[43] = test system: OVCAR-4
[44] = test system: MCF7
[45] = test system: Malme-3M
[46] = test system: NCI-H226
[47] = test system: A549
[48] = test system: DMS-114
[49] = test system: SK-MEL-2
[50] = test system: LOX IMVI
[51] = test system: EKVX
[52] = test system: UACC-62
[53] = test system: CCRF-CEM
[54] = test system: 786-0
[55] = test system: CAKI-1
[56] = test system: ACHN
[57] = test system: LXFL 529
[58] = test system: M14
[59] = test system: TK-10
[60] = test system: SR

With `Cc1ccc(S(=O)(=O)Oc2cc(-c3ccccc3)nc3ccccc23)cc1` the GI50 [1] was 1 µM (active), the GI50 [2] was 0.419 µM (active) and the GI50 [3] was 3.73 µM (inactive). The GI50 [4] was 1.81 µM (inactive), the GI50 [5] was 2.08 µM (inactive) and the GI50 [6] was 5.24 µM (inactive). The GI50 [7] was 2.49 µM (inactive), the GI50 [8] was 2.36 µM (inactive) and the GI50 [9] was 2.36 µM (inactive). For the same compound, the GI50 [10] was 3.83 µM (inactive), the GI50 [11] was 1.91 µM (inactive) and the GI50 [12] was 0.869 µM (active). For the same compound, the GI50 [13] was 1.57 µM (inactive), the GI50 [14] was 2.61 µM (inactive) and the GI50 [15] was 2.53 µM (inactive). The GI50 [16] was 5.93 µM (inactive), the GI50 [17] was 3.91 µM (inactive) and the GI50 [18] was 2.12 µM (inactive). For the same compound, the GI50 [19] was 10 µM (inactive), the GI50 [20] was 0.544 µM (active) and the GI50 [21] was 1.42 µM (inactive). The GI50 [22] was 7.08 µM (inactive), the GI50 [23] was 1.95 µM (inactive) and the GI50 [24] was 1.2 µM (inactive). For the same compound, the GI50 [25] was 2.51 µM (inactive), the GI50 [26] was 2.23 µM (inactive) and the GI50 [27] was 1.93 µM (inactive). The GI50 [28] was 3.63 µM (inactive), the GI50 [29] was 8.77 µM (inactive) and the GI50 [30] was 3.85 µM (inactive). For the same compound, the GI50 [31] was 7.62 µM (inactive), the GI50 [32] was 2.95 µM (inactive) and the GI50 [33] was 6.3 µM (inactive). For the same compound, the GI50 [34] was 15.8 µM (inactive), the GI50 [35] was 1.92 µM (inactive) and the GI50 [36] was 1.22 µM (inactive). The GI50 [37] was 1.03 µM (active), the GI50 [38] was 11.3 µM (inactive) and the GI50 [39] was 1.41 µM. For the same compound, the GI50 [40] was 3.3 µM (inactive), the GI50 [41] was 1.04 µM (active) and the GI50 [42] was 1.13 µM (inactive). The GI50 [43] was 7.33 µM (inactive), the GI50 [44] was 0.604 µM (active) and the GI50 [45] was 1.58 µM (inactive). For the same compound, the GI50 [46] was 6.4 µM (inactive), the GI50 [47] was 3.15 µM (inactive) and the GI50 [48] was 0.333 µM (active). For the same compound, the GI50 [49] was 1.98 µM (inactive), the GI50 [50] was 8.97 µM (inactive) and the GI50 [51] was 19.4 µM (inactive). The GI50 [52] was 3.01 µM (inactive) and the GI50 [53] was 2.89 µM (inactive).
With `O=C(O)C1c2ccccc2C(C(=O)O)c2ccccc21` (stereo not given) the GI50 [1] was > 100 µM (inactive), the GI50 [2] was > 100 µM (inactive) and the GI50 [3] was > 100 µM (inactive). The GI50 [4] was > 100 µM (inactive), the GI50 [5] was > 100 µM (inactive) and the GI50 [6] was > 100 µM (inactive). For the same compound, the GI50 [7] was > 100 µM (inactive), the GI50 [8] was > 100 µM (inactive) and the GI50 [54] was > 100 µM (inactive). The GI50 [9] was > 100 µM (inactive), the GI50 [55] was > 100 µM (inactive) and the GI50 [10] was > 100 µM (inactive). For the same compound, the GI50 [11] was > 100 µM (inactive), the GI50 [12] was > 100 µM (inactive) and the GI50 [56] was > 100 µM (inactive). The GI50 [57] was > 100 µM (inactive), the GI50 [13] was > 100 µM (inactive) and the GI50 [14] was > 100 µM (inactive). For the same compound, the GI50 [16] was > 100 µM (inactive), the GI50 [19] was > 100 µM (inactive) and the GI50 [20] was > 100 µM (inactive). For the same compound, the GI50 [21] was > 100 µM (inactive), the GI50 [22] was > 100 µM (inactive) and the GI50 [58] was > 100 µM (inactive). For the same compound, the GI50 [24] was > 100 µM (inactive), the GI50 [25] was > 100 µM (inactive) and the GI50 [26] was > 100 µM (inactive). For the same compound, the GI50 [27] was > 100 µM (inactive), the GI50 [28] was > 100 µM (inactive) and the GI50 [29] was > 100 µM (inactive). The GI50 [30] was > 100 µM (inactive), the GI50 [31] was > 100 µM (inactive) and the GI50 [32] was > 100 µM (inactive). The GI50 [33] was > 100 µM (inactive), the GI50 [59] was > 100 µM (inactive) and the GI50 [34] was > 100 µM (inactive). For the same compound, the GI50 [35] was > 100 µM (inactive), the GI50 [36] was > 100 µM (inactive) and the GI50 [37] was > 100 µM (inactive). The GI50 [39] was > 100 µM, the GI50 [40] was > 100 µM (inactive) and the GI50 [41] was > 100 µM (inactive). For the same compound, the GI50 [42] was > 100 µM (inactive), the GI50 [43] was > 100 µM (inactive) and the GI50 [45] was > 100 µM (inactive). The GI50 [47] was > 100 µM (inactive), the GI50 [48] was > 100 µM (inactive) and the GI50 [49] was > 100 µM (inactive). The GI50 [50] was > 100 µM (inactive), the GI50 [60] was > 100 µM (inactive) and the GI50 [52] was > 100 µM (inactive). For the same compound, the GI50 [53] was > 100 µM (inactive).
